Entries after “also recorded” stand apart in the source; their conditions may differ.
How the values were obtained:
fish sperm DNA = test: Circular dichroism / UV-vis titration with fish sperm DNA (multiple independent binding sites model); conditions: Table S1; buffer 25 mM MOPS, 50 mM NaCl, 1 mM EDTA, 25 °C; n restricted to 3 base pairs
Protocol: In view of the nuclear localisation of Ir-CMYC, we also considered the potential role that affinity to DNA may play. To explore DNA binding of these Ir(III) complexes, UV-vis and circular dichroism titrations were carried out in buffer (25 mM MOPS, 50 mM NaCl, 1 mM EDTA) at 25 °C (Fig. S6, ESI ^†). To quantify the affinity of Ir-PYR for fish sperm DNA, titration curves at 400 and 493 nm were extracted from the circular dichroism data (Fig. 6). Similarly, for Ir-CMYC, titration curves at 373 and 493 nm were extracted from the circular dichroism data. The binding data were analysed globally (Table S1 ^†) in terms of the multiple independent binding sites model, explicitly taking into account the dilution of the iridium complex during the titration.[28] […]
MOPS buffer was prepared by dissolving MOPS (3-(N-morpholino)propanesulfonic acid, CAS[1132-61-2]), NaCl, and EDTA (ethylenediaminetetraacetic acid disodium salt dihydrate, CAS[6381-92-6]) (all obtained from Fisher and used as supplied) in deionised water (Elga Purelab Flex), adjusting the pH to 7.0 using a NaOH solution (pH of the buffer was determined using a Hanna Instruments pH210 microprocessor pH meter with a VWR simple junction universal combined pH/reference electrode) and making up the solution to 0.5 litre. […]

human fibroblast cells [1] = test: Confocal fluorescence microscopy: cell uptake and localisation; type: cell-based; conditions: human fibroblasts
Protocol: The non-peptide functionalised complex Ir-PYR was investigated at a range of concentrations (1, 5, 20, 50, 80, 100 μM) with respect to cell uptake, localization and bioimaging capability. Human fibroblast cells were incubated with the different concentration solutions of Ir-PYR and imaged after 18 hours using confocal fluorescence microscopy. With long wavelength excitation and emission parameters (λex = 480 nm; λem = 645 nm) compatible with the spectral properties of the complex, it was clearly evident (Fig. 2) that the deep red emission of Ir-PYR was highly amenable to confocal fluorescence microscopy.
Human derived skin fibroblast cells lines were obtained from the Coriell Cell Repository (GM05399, Camden, NJ). Cells were cultured as monolayers in Dulbecco's modified Eagles medium (DMEM, Sigma, UK) supplemented with 10% fetal bovine serum (FBS, PAN-Biotech, Aidenbach, Germany) and 1% L-glutamine in a humidified incubator with 5% CO2 at 37 °C. For all imaging experiments low passage cells (P10-15) were seeded in 8-well chamber slides (Thistle, IB-80826) at a density of 15 000 cells in 250 μL of media.
Stock solutions were diluted to the stated concentrations in cell culture medium for incubation with fibroblasts. The equivalent amount of DMSO (<0.5% total volume) was added to controls for comparison. For nuclear visualisation cells were counterstained for 10 minutes with Hoechst 33342 diluted in cell culture media (1 μL mL^–1, Thermo Fisher, UK). For non-live imaging, cells were fixed in cold 4% paraformaldehyde for 10 min at room temperature and rinsed with PBS. For live-cell colocalization studies, cells were incubated with Ir-PYR for 12 hours prior to counterstaining with Hoechst 33342, and either LysoTracker-green DND-26 (L7528, Thermo Fisher, UK), or CYTO-ID Autophagy detection kit 2.0 (175–0050, Enzo Life Sciences, UK), as per the manufacturer's instructions. Briefly, LysoTracker was diluted in cell culture media to a final concentration of 200 nM and left for 15 min at 37 °C. […]

Human fibroblasts = test: Resazurin cell viability / metabolic activity assay; type: cell-based
Protocol: Fig. 3 Ir-PYR is cytotoxic at 20 μM and above. Human fibroblasts were incubated with various concentrations (0 or DMSO only, 5, 20, 50, 80, 100 μM) of either Ir-CMYC (A) or Ir-PYR (B) for 18 hours. Resazurin was added to cells, and after a 4 hour incubation the relative fluorescence intensity was measured (λex = 530 nm; λem = 580 nm). Ir-PYR treated cells (>20 μM) show reduced conversion of resazurin to the fluorescent resorufin indicating reduced cell viability.
Human derived skin fibroblast cells lines were obtained from the Coriell Cell Repository (GM05399, Camden, NJ). […]
Human fibroblasts were plated at 10 000 cells per well of a 96-well plate (Cellbind) and treated with the indicated concentrations of Ir-PYR, Ir-CMYC or DMSO. […] After a 4 hour incubation at 37 °C, fluorescence was determined using a Molecular Devices Spectramax Gemini EM plate reader (λex = […]; λem = 585 nm).
Human fibroblasts were plated at 10 000 cells per well of a 96-well plate and treated with the various concentrations of Ir-PYR, Ir-CMYC (5, 20, 80, 50, 100 μM) or the highest volume of equivalent of DMSO only. […] After a 4 hour incubation at 37 °C, fluorescence was determined using a Molecular Devices Spectramax Gemini EM plate reader (λex = 530 nm; λem = 580 nm).

human fibroblast cells [2] = test: Immunocytochemistry with cell membrane permeabilisation (retention of red emission); type: cell-based; conditions: fluorescence microscopy imaging
Source text: To investigate whether the NLS was cleaved off Ir-CMYC prior to translocation to the nucleus, an immunoassay was trialled using an antibody raised against c-Myc.

[3] = Longer term stability in water by UV-vis absorption spectra; type: physicochemical
Protocol: Our previous studies on Ir(III) complexes have shown that the use of substituted, cyclometalated quinoxaline ligands can impart red luminescence characteristics.[25] Firstly, the UV-vis absorption and emission spectral characteristics of Ir-PYR were determined. […] By inference, ligand-centred transitions are assumed to dominate below 350 nm, with both quinoxaline and bipyridine located π → π* contributing to the spectrum. At 350–450 nm it is likely that spin-allowed metal-to-ligand (5d-to-π*) charge transfers (^1MLCT) are present, with a weaker (ε < 1000 M^–1 cm^–1) shoulder feature at 450–600 nm, which is presumably due to a spin forbidden (S0 → T1) ^3MLCT absorption. […] To assess longer term stability in water, UV-vis absorption spectra of an aqueous solution (stored at 25 °C in light) of Ir-CMYC were recorded at 0, 24, 48 and 72 h (Fig. S4, ESI ^†).

[4] = Freeze-thaw stability of DMSO stock solutions; type: physicochemical; conditions: 10 mM stock in DMSO stored at –20 °C

PAAKRVKLD [Ir-CMYC, NLS peptide … functionalised at N-terminus with cyclometalated iridium(III) quinoxaline/bipyridine complex]
K (fitted equilibrium constant, binding to FS DNA) (fish sperm DNA): 4.5 ± 1.0 103 M-1
uptake / staining at 1–5 μM (human fibroblast cells [1]; 1–5 μM, 18 h, confocal microscopy): No uptake or staining
concentration giving good cell uptake and nuclear localisation (human fibroblast cells [1]; 18–24 h incubation, confocal, co-localisation with Hoechst 33342, n = 2): 80 to 100 µM
staining at 20–50 μM (human fibroblast cells [1]; 20–50 μM, 18 h, confocal microscopy): weak punctate staining
cytotoxicity (Human fibroblasts; 5–100 μM, 18 h incubation, resazurin): No cytotoxicity was observed; also recorded: essentially non-toxic
toxicity: changes in cellular morphology or mitochondrial activity (Human fibroblasts; 24 hours after incubation, resazurin cell death assay): no (or minimal) toxicity
red emission in cells after immunocytochemistry procedure which permeabilises the cell membrane (human fibroblast cells [2]): no longer evident
UV-vis absorption spectra at 0, 24, 48 and 72 h (chemical stability in water) ([3]; aqueous solution stored at 25 °C in light, read-out UV-vis absorption): superimposable
solubility in water ([3]; inferred from superimposable UV-vis spectra of aqueous solution over 72 h, 25 °C): excellent solubility
effect of 3 freeze–thaw cycles on compound signal [4]: did not appear to reduce the compound signal

— PMC7069228, “Targeted cell imaging properties of a deep red luminescent iridium(III) complex conjugated with a c-Myc signal peptide” (Chemical Science, 2020)
